From ChEMBL document CHEMBL1201862, “PubChem BioAssay data set” (2004)
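Cultured in 96-well plates, cells were exposed to test compound for 48 hours across five concentrations. GI50: concentration for 50% inhibition of growth.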 Active and inactive are the calls of the source. Cut-off read from the data, not from the text of the source: active = GI50 up to about 1.1 µM and inactive = higher.

Experiments:
Assay in all cases: DTP human tumour cell line panel, 48 h
[1] = tested on: LOX IMVI
[2] = tested on: NCI-H226
[3] = tested on: RPMI-8226
[4] = tested on: MCF7
[5] = tested on: HT-29
[6] = tested on: HCT-15
[7] = tested on: IGROV-1
[8] = tested on: OVCAR-8
[9] = tested on: OVCAR-5
[10] = tested on: BT-549
[11] = tested on: HCT-116
[12] = tested on: MDA-N
[13] = tested on: MDA-MB-231
[14] = tested on: TK-10
[15] = tested on: COLO 205
[16] = tested on: OVCAR-4
[17] = tested on: CAKI-1

| SMILES | GI50 [1] | GI50 [2] | GI50 [3] | GI50 [4] | GI50 [5] | GI50 [6] [µM] | GI50 [7] | GI50 [8] | GI50 [9] | GI50 [10] | GI50 [11] | GI50 [12] | GI50 [13] | GI50 [14] | GI50 [15] | GI50 [16] | GI50 [17] |
| --- | --- | --- | --- | --- | --- | --- | --- | --- | --- | --- | --- | --- | --- | --- | --- | --- | --- |
| CC(C)(C)[Si](C)(C)O[C@@H](C(=O)OC1C=CCCC1)[C@@H](NC(=O)c1ccccc1)c1ccccc1 (stereo partly specified) | 16.7 µM (inactive) | 37.8 µM (inactive) | 4.79 µM (inactive) | 14.8 µM (inactive) | 14.3 µM (inactive) | 20 | 37.3 µM (inactive) | 56.4 µM (inactive) | 24.4 µM (inactive) | 51.1 µM (inactive) | 12.6 µM (inactive) | 31 µM (inactive) | 19.1 µM (inactive) | 16.5 µM (inactive) | 25.3 µM (inactive) | 21.5 µM (inactive) | 48.6 µM (inactive) |
| S=C1C=C(c2ccccc2)Sc2ccccc2N1 | > 100 µM (inactive) | > 100 µM (inactive) | > 100 µM (inactive) | > 100 µM (inactive) | > 100 µM (inactive) | > 100 | > 100 µM (inactive) | > 100 µM (inactive) | > 100 µM (inactive) | > 100 µM (inactive) | 79.8 µM (inactive) | > 100 µM (inactive) | > 100 µM (inactive) | > 100 µM (inactive) | > 100 µM (inactive) | > 100 µM (inactive) | > 100 µM (inactive) |
| CN(CCCN=C=S)CCCN1c2ccccc2CCc2ccccc21 | 1.88 µM (inactive) | 2.04 µM (inactive) | 1.87 µM (inactive) | 1.59 µM (inactive) | 1.51 µM (inactive) | 1.49 | 1.79 µM (inactive) | 1.78 µM (inactive) | 1.81 µM (inactive) | 2.83 µM (inactive) | 1.71 µM (inactive) | 1.71 µM (inactive) | 1.8 µM (inactive) | 1.82 µM (inactive) | 1.66 µM (inactive) | 1.85 µM (inactive) | 1.73 µM (inactive) |
| O=C(CC(O)c1cccnc1)CC(O)c1cccnc1 (stereo unspecified) | 5.18 µM (inactive) | 45.7 µM (inactive) | 3.29 µM (inactive) | 4.34 µM (inactive) | 7.05 µM (inactive) | 14.1 | 14.8 µM (inactive) | 15.3 µM (inactive) | 24.2 µM (inactive) | 11.7 µM (inactive) | 2.04 µM (inactive) | 7.26 µM (inactive) | 14.9 µM (inactive) | > 55.1 µM (inactive) | 14.1 µM (inactive) | 20.7 µM (inactive) | 17.7 µM (inactive) |
| C/C(=N/O)c1cccc(Nc2nc3ccccc3c3[nH]c4ccccc4c23)c1 | 2.22 µM (inactive) | 4.8 µM (inactive) | 2.26 µM (inactive) | 1.48 µM (inactive) | 1.57 µM (inactive) | 2.36 | 3.19 µM (inactive) | 2.65 µM (inactive) | 2.65 µM (inactive) | 12.8 µM (inactive) | 1.16 µM (inactive) | 1.82 µM (inactive) | 2.95 µM (inactive) | 4.6 µM (inactive) | 2.24 µM (inactive) | 2.33 µM (inactive) | 2.75 µM (inactive) |
| CC(C)(C)OC(=O)NCCC(=O)NC1(c2cc3ccccc3s2)CCCCC1 | 18.2 µM (inactive) | 21.3 µM (inactive) | 0.759 µM (active) | 17.5 µM (inactive) | 13.8 µM (inactive) | 15.1 | 17.3 µM (inactive) | 17.5 µM (inactive) | 19.7 µM (inactive) | 16.9 µM (inactive) | 13.9 µM (inactive) | 17.6 µM (inactive) | 19.1 µM (inactive) | 29 µM (inactive) | 17.5 µM (inactive) | 13.4 µM (inactive) | 21.2 µM (inactive) |
| CCOC(=O)c1cc(-c2ccc(OC)c(OC)c2)cn1C | > 10 µM (inactive) | > 10 µM (inactive) | > 10 µM (inactive) | > 10 µM (inactive) | > 10 µM (inactive) | > 10 | > 10 µM (inactive) | > 10 µM (inactive) | > 10 µM (inactive) | > 10 µM (inactive) | > 10 µM (inactive) | > 10 µM (inactive) | > 10 µM (inactive) | > 10 µM (inactive) | > 10 µM (inactive) | > 10 µM (inactive) | > 10 µM (inactive) |
| CC(C)/C(Cl)=N\OC(=O)Nc1ccc(C#N)cc1 | 3.3 µM (inactive) | 13.1 µM (inactive) | 2.56 µM (inactive) | 9.04 µM (inactive) | 21 µM (inactive) | 10.5 | 17.6 µM (inactive) | 16.7 µM (inactive) | 15.1 µM (inactive) | 13.7 µM (inactive) | 5 µM (inactive) | 6.01 µM (inactive) | 14.6 µM (inactive) | 5.35 µM (inactive) | 1.79 µM (inactive) | 1.63 µM (inactive) | 5.58 µM (inactive) |
| COc1cc(/C=C2\C[C@H]3[C@@H]4CCc5cc(O)ccc5[C@H]4CC[C@]3(C)C2=O)cc(OC)c1OC | 15.5 µM (inactive) | 6.05 µM (inactive) | 14.4 µM (inactive) | 52.6 µM (inactive) | 12.5 µM (inactive) | 25.8 | 15.3 µM (inactive) | 15.5 µM (inactive) | 17.7 µM (inactive) | 18.9 µM (inactive) | 13.4 µM (inactive) | 15.6 µM (inactive) | 14.3 µM (inactive) | 8.81 µM (inactive) | 16.7 µM (inactive) | 15.8 µM (inactive) | 11.4 µM (inactive) |
| Cc1n[nH]c(=O)n1N=C(c1ccccc1)c1ccccc1 | > 100 µM (inactive) | > 100 µM (inactive) | > 100 µM (inactive) | > 100 µM (inactive) | > 100 µM (inactive) | > 100 | > 100 µM (inactive) | > 100 µM (inactive) | > 100 µM (inactive) | > 100 µM (inactive) | > 100 µM (inactive) | > 100 µM (inactive) | > 100 µM (inactive) | > 100 µM (inactive) | > 100 µM (inactive) | > 100 µM (inactive) | > 100 µM (inactive) |
| O=c1c2cc([N+](=O)[O-])ccc2nc2n1CCCCC2 | > 100 µM (inactive) | > 100 µM (inactive) | > 100 µM (inactive) | > 100 µM (inactive) | > 100 µM (inactive) | > 100 | > 100 µM (inactive) | > 100 µM (inactive) | > 100 µM (inactive) | 78 µM (inactive) | > 100 µM (inactive) | > 100 µM (inactive) | > 100 µM (inactive) | > 100 µM (inactive) | > 100 µM (inactive) | > 100 µM (inactive) | 79.6 µM (inactive) |
| COC(=O)C(CCCCNC(=O)CNC(=O)OCc1ccccc1)NC(=O)C(CCCCNC(=O)CNC(=O)OCc1ccccc1)NC(=O)OCc1ccccc1 (stereo unspecified) | 87.9 µM (inactive) | > 100 µM (inactive) | 20.4 µM (inactive) | 0.0805 µM (active) | > 100 µM (inactive) | > 100 | > 10 µM (inactive) | 57.3 µM (inactive) | > 100 µM (inactive) | 20.7 µM (inactive) | 84.7 µM (inactive) | 51.6 µM (inactive) | > 100 µM (inactive) | > 100 µM (inactive) |  | 29.2 µM (inactive) | > 100 µM (inactive) |
| NS(=O)(=O)c1ccc(NNc2c3ccccc3nc3c(C(=O)Nc4ccc(S(N)(=O)=O)cc4)cccc23)cc1 | 11.5 µM (inactive) | 37.6 µM (inactive) | 24.9 µM (inactive) | 12.9 µM (inactive) | 26.9 µM (inactive) | > 100 | 19.3 µM (inactive) | 26.5 µM (inactive) | 62.7 µM (inactive) | 5.85 µM (inactive) | 22.1 µM (inactive) | 65 µM (inactive) | 21.6 µM (inactive) | > 100 µM (inactive) | 39.9 µM (inactive) | 19.6 µM (inactive) | > 100 µM (inactive) |
| COc1ccc(NC(C)=O)cc1N1C(=O)/C(=C\c2cc(OC)c(OC)c(OC)c2)S(=O)(=O)C1c1ccccc1 (stereo unspecified) | 68.1 µM (inactive) | 26.5 µM (inactive) | 65.8 µM (inactive) | 33 µM (inactive) | 47.2 µM (inactive) | 73.1 | 98.4 µM (inactive) | 59.4 µM (inactive) | 23.5 µM (inactive) | > 100 µM (inactive) | 29.3 µM (inactive) | 34.1 µM (inactive) | 74.3 µM (inactive) | > 100 µM (inactive) | 39 µM (inactive) | 31.6 µM (inactive) | > 100 µM (inactive) |
| O=C1OCc2c1cc1cc3c(cc1c2-c1ccc2c(c1)OCO2)OCO3.O=C1OCc2cc3cc4c(cc3c(-c3ccc5c(c3)OCO5)c21)OCO4 | 14.2 µM (inactive) | 9.77 µM (inactive) | 4.31 µM (inactive) | 15.4 µM (inactive) | 7.23 µM (inactive) | 6.18 | 8.55 µM (inactive) | 13.5 µM (inactive) | 21 µM (inactive) | 19 µM (inactive) | 2.76 µM (inactive) | 1.41 µM (inactive) | 2.12 µM (inactive) | 14.4 µM (inactive) | 5.79 µM (inactive) | 18 µM (inactive) | 11.8 µM (inactive) |
| COc1ccc2nc3cc([N+](=O)[O-])ccc3c(Nc3ccc(S(=O)(=O)Nc4ncccn4)cc3)c2c1 | > 73.8 µM (inactive) | 69.3 µM (inactive) | 14.5 µM (inactive) | 15.3 µM (inactive) | 26.5 µM (inactive) | > 69.8 | 15 µM (inactive) | 45.2 µM (inactive) | > 100 µM (inactive) | > 44.4 µM (inactive) | 40.6 µM (inactive) | > 89.1 µM (inactive) | > 60.1 µM (inactive) | 66.8 µM (inactive) | 40.3 µM (inactive) | > 100 µM (inactive) | > 100 µM (inactive) |
